Measured values as given in PubChem BioAssay AID1996.
Converted amounts (≈) assume the structure as drawn.

Details: buffer; pH 7.4; 200.0 µM

| Structure (SMILES) | solubility kinetic |
| --- | --- |
| CCCC(=O)Nc1ccc2oc(=O)ccc2c1 | > 34.7 µg/mL |
| Cc1ccc(NC(=O)CCNC(=O)c2ccco2)cc1Cl | 20.3 µg/mL (≈ 66.2 µM) |
| CCC(C)Nc1nc(N)c([N+](=O)[O-])c(N2CCCCCC2)n1 (centres undefined) | 29.1 µg/mL (≈ 94.4 µM) |
| CC1CCCCC1NC(=O)c1ccc(-n2cncn2)cc1 (centres undefined) | > 42.7 µg/mL |
| O=C(O)C1CCCN(S(=O)(=O)c2ccccc2[N+](=O)[O-])C1 (centres undefined) | 36.5 µg/mL (≈ 116 µM) |
| O=C(c1cc(F)ccc1F)C1CCCN(Cc2cccc(Cl)c2)C1 (centres undefined) | 2.1 µg/mL (≈ 6 µM) |
| OC(CN1CCCC(C(F)(F)F)C1)c1ccccc1 (centres undefined) | 31.1 µg/mL (≈ 114 µM) |
| COCC1CCCN(C(=O)c2ccc3oc(C(C)C)nc3c2)C1 (centres undefined) | 42.2 µg/mL (≈ 133 µM) |
| O=C(c1cc2cc([N+](=O)[O-])ccc2s1)N1CCOCC1 | 16.2 µg/mL (≈ 55.4 µM) |
| Brc1ccc2[nH]c3c(c2c1)CCC3 | 3.1 µg/mL (≈ 13.1 µM) |
| O=C(O)c1ccc(CNC(=O)c2ccc3c(c2)OCCO3)cc1 | > 47 µg/mL |
| OCCSc1nc(N2CCOCC2)nc(N2CCOCC2)n1 | > 49.1 µg/mL |
| COc1ccc(-c2noc(-c3cccs3)n2)cc1OC | 0.5 µg/mL (≈ 1.73 µM) |
| Cc1nc(C2COc3ccccc3O2)sc1C(=O)O (centres undefined) | 35 µg/mL (≈ 126 µM) |
| O=C(O)C1CC=CCC1C(=O)NCCCCc1ccccc1 (centres undefined) | > 45.2 µg/mL |
| CCn1c(Cc2cccs2)nnc1SCC(=O)NC1CC1 | > 48.4 µg/mL |
| COc1ccc(NS(=O)(=O)c2ccc3c(c2)OCCO3)cc1OC | > 52.7 µg/mL |
| CCOC(=O)c1oc2ccc(Cl)cc2c1NC(C)=O | 4.8 µg/mL (≈ 17 µM) |
| CCOc1ccc(C(=O)Nc2ccccc2OC(F)F)cc1 | 6.1 µg/mL (≈ 19.9 µM) |
| COc1ccc(C(CNc2ncnc3sccc23)N(C)C)cc1OC (centres undefined) | 35.5 µg/mL (≈ 99 µM) |
| CC(=O)N(C)c1ccc(N=Cc2cc3c(cc2[N+](=O)[O-])OCO3)cc1 | 44.1 µg/mL (≈ 129 µM) |
| O=[N+]([O-])c1cccnc1Sc1ccc(Cl)cc1 | 0.7 µg/mL (≈ 2.62 µM) |
| Cc1c(C(=O)Nc2nccs2)oc2ccc(F)cc12 | 3.1 µg/mL (≈ 11.2 µM) |
| O=C(c1cc2ccccc2o1)N1CCOCC1 | > 34.7 µg/mL |

| Structure (SMILES) | solubility kinetic |
| --- | --- |
| Nc1c(C(=O)OCC(=O)NCc2ccccc2)[nH]c(=O)[nH]c1=O | 28.9 µg/mL (≈ 90.8 µM) |
| COc1ccc(Nc2ncnc3ccc([N+](=O)[O-])cc23)c(OC)c1 | 10.5 µg/mL (≈ 32.2 µM) |
| C/C(=N/O)c1cccc(N2Cc3ccccc3C2)c1 | 22.2 µg/mL (≈ 88 µM) |
| Cc1c(C(=O)N(C)CCn2ccnc2C)oc2c(F)cccc12 | 38.1 µg/mL (≈ 121 µM) |
| COc1cc2cc(-c3ccc(OC)c(OC)c3C)nc(N)c2cc1OC | 46.8 µg/mL (≈ 132 µM) |
| COc1cccc(Nc2ncnc3sccc23)c1 | > 38.6 µg/mL |
| COc1ccc(/C=C(\C#N)C(=O)OCC(=O)NC2CC2)cc1 | 10.1 µg/mL (≈ 33.6 µM) |
| C=CCNc1nc(N)c([N+](=O)[O-])c(NC2CCCCC2)n1 | 0.7 µg/mL (≈ 2.39 µM) |
| Nc1ccccc1C(O)(Cc1ccccc1)c1ccccc1 (centres undefined) | 17.3 µg/mL (≈ 59.8 µM) |
| O=C(COc1nncc2ccccc12)NCC(F)(F)F | > 42.8 µg/mL |
| O=C(NCc1ccc2c(c1)OCO2)Nc1ccc2ccccc2c1 | 1.3 µg/mL (≈ 4.06 µM) |
| O=C(/C=C/c1ccco1)Nc1ccc(CN2CCOCC2)cc1 | > 46.9 µg/mL |
| CCCC12CN3CC(C)(CN(C1)C3c1ccco1)C2=O (centres undefined) | 38.9 µg/mL (≈ 142 µM) |
| COC(=O)C(Cc1ccc(O)cc1)N1Cc2ccccc2C1=O (centres undefined) | > 46.7 µg/mL |
| Cc1cc2nc3c(=O)[nH]c(=S)[nH]c3nc2cc1NC(=O)C(F)(F)F | 26.8 µg/mL (≈ 75.4 µM) |
| Cc1ccc(S(=O)(=O)N2CCCCC2)cc1NC(=O)COC(=O)c1cccn1C | 9 µg/mL (≈ 21.5 µM) |
| CCCCCCc1c(C)[nH]c2nc3ccccc3n2c1=O | < 0.2 µg/mL |
| O=C1NC(=S)N/C1=C/c1ccc2ccccc2c1 | 0.6 µg/mL (≈ 2.36 µM) |
| O=C(NCc1cccc(Cl)c1)c1ccc2c(c1)OCCO2 | 3.2 µg/mL (≈ 10.5 µM) |
| CC1CC(C)CN(C(=O)Cc2c(C(=O)O)[nH]c3ccc(Cl)cc23)C1 (centres undefined) | > 52.3 µg/mL |
| O=C(CCSCc1ccccc1Cl)NCc1ccco1 | > 46.5 µg/mL |
| CCOC(=O)Cc1csc(NC(=O)Nc2cccs2)n1 | 18.4 µg/mL (≈ 59.1 µM) |
| O=C(Nc1cc(Cl)ccc1-n1cncn1)C1CC1 | > 39.4 µg/mL |
| CCOc1cccc(CN2CCC(CCC(=O)NC3CC3)CC2)c1O | 44.4 µg/mL (≈ 128 µM) |

| Structure (SMILES) | solubility kinetic |
| --- | --- |
| Cc1ccc(S(=O)(=O)n2cnc3ccccc32)cc1[N+](=O)[O-] | > 47.6 µg/mL |
| CC(=O)c1cc(C(C)=O)c(C)[n+](C)c1C.[O-][Cl+3]([O-])([O-])[O-] | 41.5 µg/mL |
| CCc1ccc2nc(SCC(=O)NCC3CCCO3)c(C#N)cc2c1 (centres undefined) | 1.9 µg/mL (≈ 5.35 µM) |
| CNC(=S)N(CCc1c(C)[nH]c2ccc(Cl)cc12)Cc1cccnc1 | 46.2 µg/mL (≈ 124 µM) |
| Cc1cccc(-n2c(=O)c3c(C)c(C)sc3n(CC(N)=O)c2=O)c1 | > 51.5 µg/mL |
| CCC(=O)OC1(Cc2ccc(CC)cc2)CC(C)N(C)CC1C.Cl (centres undefined) | 46.9 µg/mL |
| NS(=O)(=O)c1ccc(CCNC(=O)COC(=O)C2COc3ccccc3O2)cc1 (centres undefined) | > 63.1 µg/mL |
| COc1ccccc1C(C)NC(=O)CCOc1cccc(C)c1 (centres undefined) | 2.4 µg/mL (≈ 7.66 µM) |
| C=CCSc1nnc(NC(=O)C2=COCCO2)s1 | > 42.8 µg/mL |
| O=C(CS(=O)(=O)c1ccccc1)NCc1ccc(Cl)cc1 | 2.7 µg/mL (≈ 8.34 µM) |
| N#Cc1ccccc1OCC(=O)NC1CCCCC1 | > 38.7 µg/mL |
| Cn1c(-c2ccccc2[N+](=O)[O-])[n+](C)c2ccccc21.[Cl-] | 42.9 µg/mL |
| Cc1ccccc1SCC(=O)OCC(=O)N1CC(=O)Nc2ccccc21 | 11.6 µg/mL (≈ 31.3 µM) |
| CCOc1ccc(NS(=O)(=O)c2ccc3[nH]c(=O)[nH]c3c2)cc1 | 2 µg/mL (≈ 6 µM) |
| COc1ccc(C(=O)/C=C/c2cccnc2)c(OC)c1 | > 40.4 µg/mL |
| CCOC(=O)c1cc(-c2cccc([N+](=O)[O-])c2)on1 | 2.1 µg/mL (≈ 8.01 µM) |
| CN1c2ccccc2C(=O)C(=C2SCCCS2)S1(=O)=O | 27 µg/mL (≈ 82.5 µM) |
| COc1cccc(NC(=O)c2sc(Cl)nc2C)c1 | > 42.4 µg/mL |
| CC(C)Cc1ccc(S(=O)(=O)Nc2ccccn2)cc1 | 31.7 µg/mL (≈ 109 µM) |
| Cc1cc(C)c(C)c(S(=O)(=O)N2CCC(C(=O)OCC(=O)NC3CCS(=O)(=O)C3)CC2)c1C (centres undefined) | > 75.1 µg/mL |
| O=S(=O)(Cc1ccccc1)NCCc1cccc(Cl)c1 | 40.5 µg/mL (≈ 131 µM) |
| CCC(Oc1cccc(Cl)c1)C(=O)N1CCCN(C)CC1 (centres undefined) | > 46.6 µg/mL |
| CCCCCC(=O)Nc1cccc(S(=O)(=O)NC2=NCCC2)c1 | > 50.6 µg/mL |
| CCOC(=O)N1CCC(NC(=O)c2ccc(Cl)cc2)CC1 | > 46.6 µg/mL |

| Structure (SMILES) | solubility kinetic |
| --- | --- |
| Cc1cc(C(=O)OCC(=O)NC2CCC(C)CC2)c(C)o1 (centres undefined) | 11.6 µg/mL (≈ 39.5 µM) |
| COc1cccc(CNC(=O)CCNC(=O)c2ccco2)c1 | > 45.3 µg/mL |
| CCOc1cccc(C(=O)Nc2ccc3c(c2)OCCO3)c1 | 27.3 µg/mL (≈ 91.2 µM) |
| Cc1cc(NC(=O)C(C)Sc2nc(-c3ccccc3)cc(=O)[nH]2)no1 (centres undefined) | 17.4 µg/mL (≈ 48.8 µM) |
| CCC(C)N1CNc2c(c(=O)[nH]c(=S)n2-c2cccc(C)c2)C1 (centres undefined) | > 49.6 µg/mL |
| COc1ccccc1CN(C)C(=O)COC(=O)c1cc(C)oc1C | > 49.7 µg/mL |
| O=C(O)CSCc1nc2cccnc2n1C1CCCCC1 | 42.1 µg/mL (≈ 138 µM) |
| O=C(C1CC(=O)N(c2ccc(F)cc2)C1)N1CCOCC1 (centres undefined) | 41.5 µg/mL (≈ 142 µM) |
| CNC(=O)CNC(=O)Nc1ccc(C)cc1 | > 33.2 µg/mL |
| Cc1cccc(OCCCn2c(CO)nc3ccccc32)c1 | > 44.5 µg/mL |
| COc1cc(OC)c(CN2CCCN(C)CC2)cc1Br | 44.9 µg/mL (≈ 131 µM) |
| CCNC(=S)Nc1cc2oc3ccccc3c2cc1OC | 3.2 µg/mL (≈ 10.7 µM) |
| COc1ccc(CC(=O)Nc2cc(Cl)ccc2C(=O)O)cc1 | > 48 µg/mL |
| CC(C)Oc1ccc(C(CC(=O)N2CCOCC2)C(C)C)cc1 (centres undefined) | > 47.9 µg/mL |
| COc1ccc2[nH]c(C(=O)O)c(NC(=O)c3ccccc3[N+](=O)[O-])c2c1 | > 53.3 µg/mL |
| CCC(=O)c1ccc(OCC(=O)NCc2ccccc2CN2CCCC2)cc1 | > 57.1 µg/mL |
| CCOCCCNC(=O)CN1C(=O)c2cccc3cccc1c23 | > 46.9 µg/mL |
| O=C(/C=C/Nc1ccc(S(=O)(=O)Nc2ncccn2)cc1)c1cccs1 | 6.7 µg/mL (≈ 17.3 µM) |
| Cc1nc(NC(=O)CN2CCCCC2)sc1C(=O)N(C)C | > 46.6 µg/mL |
| CCOc1ccccc1NC1=NC2CS(=O)(=O)CC2S1 (centres undefined) | > 46.9 µg/mL |
| N#Cc1ccc(CSc2nnc3ccccn23)cc1 | > 39.9 µg/mL |
| Cc1ccc(NC(=O)C2CCCN2C(=O)c2cccs2)c(C)c1 (centres undefined) | 24 µg/mL (≈ 73.1 µM) |
| O=c1[nH]c(O)c(C=Nc2ccc(F)c(Cl)c2)c(=O)[nH]1 | 14 µg/mL (≈ 49.4 µM) |
| CC(=O)N(CCCN(C)C)c1nc2ccc(C)cc2s1.Cl | > 49.2 µg/mL |

| Structure (SMILES) | solubility kinetic |
| --- | --- |
| OC(CN1CCN(c2ccccc2Cl)CC1)c1ccccc1 (centres undefined) | 41.4 µg/mL (≈ 131 µM) |
| O=C1N[C@@H](Cc2ccccc2)C(=O)N2CCC[C@@H]12 | > 36.6 µg/mL |
| COc1ccc(CCC(C)NCc2ccc(Cl)c(Cl)c2)cc1 (centres undefined) | 17.3 µg/mL (≈ 51.1 µM) |
| Cc1cccc(NC(=O)Nc2ccc(Cl)cc2)n1 | < 0.2 µg/mL |
| O=C(Nc1cc(Cl)ccc1N1CCOCC1)c1ccncc1 | > 47.7 µg/mL |
| O=C(COC(=O)CNC(=O)c1cccc(OC(F)F)c1)NCc1ccc2c(c1)OCO2 | 22 µg/mL (≈ 50.4 µM) |
| CC(=O)Nc1nc(C)c(Oc2cccc(C(F)(F)F)c2)c(=O)[nH]1 | 45.1 µg/mL (≈ 138 µM) |
| O=C(CCNC(=O)c1ccc([N+](=O)[O-])cc1)Nc1nccs1 | 12.9 µg/mL (≈ 40.3 µM) |
| CCOC(=O)c1c(-c2ccc(C)s2)csc1N | 7.3 µg/mL (≈ 27.3 µM) |
| Fc1ccc(NC(=S)N2CCc3ccccc32)cc1 | 3.1 µg/mL (≈ 11.4 µM) |
| N#Cc1ccc(NC(=O)c2cccs2)nc1 | > 34.4 µg/mL |
| CCOc1ncccc1C(=O)Nc1cc(S(=O)(=O)N2CCOCC2)ccc1OCC(F)(F)F | 0.5 µg/mL (≈ 1.02 µM) |
| C=CCn1c(COc2ccc(OC)cc2)nc2ccccc21 | 26.8 µg/mL (≈ 91 µM) |
| Cc1ccc(-n2c(C)nc3ccsc3c2=O)cc1 | > 38.4 µg/mL |
| NC(=S)NNc1cccc2cccnc12 | > 32.7 µg/mL |
| CCOc1ccc(OCC)c(S(=O)(=O)n2cc(C)nc2CC)c1 | 10.6 µg/mL (≈ 31.3 µM) |
| CC1(c2ccccc2)NC(=O)N(CC(=O)N2CCN(S(=O)(=O)c3c(F)cccc3F)CC2)C1=O (centres undefined) | 25 µg/mL (≈ 50.8 µM) |
| Cc1cccc(C(=O)NCC(=O)NC2CCC(C)CC2)c1 (centres undefined) | 10.5 µg/mL (≈ 36.4 µM) |
| CCOC(=O)C(NCCOC)(NC(C)=O)C(F)(F)F (centres undefined) | > 42.9 µg/mL |
| O=C(CN1C(=O)COc2ccc(Cl)cc21)Nc1nccs1 | 1.4 µg/mL (≈ 4.32 µM) |
| CC1(C)C2C/C(=N\O)C(C)(/[N+]([O-])=C/c3cccc([N+](=O)[O-])c3)CC21 (centres undefined) | 45.2 µg/mL (≈ 136 µM) |
| COC(=O)c1sccc1-n1cc(C#N)c(=O)n(C)c1=O | > 43.7 µg/mL |
| Cc1ccc(S(=O)(=O)N2CC3CCCC2C3)cc1 (centres undefined) | 34.9 µg/mL (≈ 132 µM) |
